What follows are molecules tested against T1, WT BTK protein (Homo sapiens, UniProt Q06187) (assay: BTK protein degradation assay (Western blotting), WT BTK). Conditions: concentration range accounting for 50% degradation of WT BTK protein, TMD-8 or RAMOS cells, 24 hours.
T1 construct: measured for intracellular BTK protein levels by Western blotting; endogenous in cells; host or cells: TMD-8 or RAMOS cells
Type: cell-based
Procedure, shortened: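 BTK levels were read by Western blotting (GAPDH and β-actin normalisers) in RIPA lysates of TMD-8 cells exposed to compounds for 24 h at 1×10^6 cells/mL. Results scored in ranges of the concentration producing 50% loss of WT BTK.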

T1 sequence (Q06187 whole entry): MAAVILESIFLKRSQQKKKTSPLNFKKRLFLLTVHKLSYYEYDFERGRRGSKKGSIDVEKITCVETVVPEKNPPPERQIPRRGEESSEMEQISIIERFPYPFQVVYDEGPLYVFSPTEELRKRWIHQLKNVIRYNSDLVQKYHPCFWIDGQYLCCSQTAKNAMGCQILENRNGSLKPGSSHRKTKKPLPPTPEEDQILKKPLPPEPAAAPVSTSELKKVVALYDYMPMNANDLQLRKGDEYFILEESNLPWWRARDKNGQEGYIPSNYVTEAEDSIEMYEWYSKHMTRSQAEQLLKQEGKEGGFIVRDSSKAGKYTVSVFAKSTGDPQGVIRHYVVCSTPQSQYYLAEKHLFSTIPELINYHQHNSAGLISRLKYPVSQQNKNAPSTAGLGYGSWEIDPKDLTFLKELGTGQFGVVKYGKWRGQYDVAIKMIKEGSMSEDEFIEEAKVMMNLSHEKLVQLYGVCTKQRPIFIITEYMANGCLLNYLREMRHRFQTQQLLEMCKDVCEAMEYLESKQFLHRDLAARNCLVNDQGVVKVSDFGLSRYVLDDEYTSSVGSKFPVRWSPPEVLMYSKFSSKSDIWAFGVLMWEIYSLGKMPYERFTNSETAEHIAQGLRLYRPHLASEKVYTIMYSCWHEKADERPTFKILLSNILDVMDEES

Compared with `Cc1cccc(C)c1Nc1nn(C)c2nc(Nc3ccc(C4CCN(CC5CCN(c6ccc7c(n6)CN(C6CCC(=O)NC6=O)C7=O)CC5)CC4)cc3)ncc12` (centres unmarked) [Compound 170, 3-(2-(4-((4-(4-((3-((2,6-Dimethylphenyl)amino)-1-methyl-1H-pyrazolo[3,4-d]pyrimidin-6-yl)amino)phenyl)piperidin-1-yl)methyl)piperidin-1-yl)-5-oxo-5,7-dihydro-6H-pyrrolo[3,4-b]pyridin-6-yl)piperidin-2,6-one], `Cc1cccc(C)c1Nc1nn(C)c2nc(Nc3ccc(C4CCN(CC5CCN(c6ccc7c(c6)C(=O)N(C6CCC(=O)NC6=O)C7=O)CC5)CC4)cc3F)ncc12` (centres unmarked) [Compound 231, 5-(4-((4-(4-((3-((2,6-Dimethylphenyl)amino)-1-methyl-1H-pyrazolo[3,4-d]pyrimidin-6-yl)amino)-3-fluorophenyl)piperidin-1-yl)methyl)piperidin-1-yl)-2-(2,6-dioxopiperidin-3-yl)isoindoline-1,3-dione] is higher in DC50: 0.1 to 10 nM for the first, 10 to 1000 nM for the second.

`Cc1cccc(C)c1Nc1nn(C)c2nc(Nc3ccc4c(c3)CN(C(=O)CC3(O)CCN(c5ccc6c(c5)C(=O)N(C5CCC(=O)NC5=O)C6=O)CC3)CC4)ncc12` (centres unmarked) [Compound 129, 5-(4-(2-(7-((3-((2,6-dimethylphenyl)amino)-1-methyl-1H-pyrazolo[3,4-d]pyrimidin-6-yl)amino)-3,4-dihydroisoquinolin-2 (1H)-yl)-2-oxoethyl)-4-hydroxypiperidin-1-yl)-2-(2,6-dioxopiperidin-3-yl)isoindoline-1,3-dione] and `Cc1cccc(C)c1Nc1nn(C)c2nc(Nc3ccc4c(c3)CN(C(=O)CC3CCN(c5ccc6c(c5)C(=O)N(C5CCC(=O)NC5=O)C6=O)CC3)CC4)ncc12` (centres unmarked) [Compound 125, 5-(4-(2-(7-((3-((2,6-Dimethylphenyl)amino)-1-methyl-1H-pyrazolo[3,4-d]pyrimidin-6-yl)amino)-3,4-dihydroisoquinolin-2 (1H)-yl)-2-oxoethyl)piperidin-1-yl)-2-(2,6-dioxopiperidin-3-yl)isoindoline-1,3-dione] fall in the same range of DC50: 0.1 to 10 nM for the first, 0.1 to 10 nM for the second.

`Cc1cccc(C)c1Nc1nn(C)c2nc(Nc3ccc4c(c3)CN(CC3CCN(c5ccc(C(=O)NC6CCC(=O)NC6=O)nc5)CC3)CC4)ncc12` (centres unmarked) [Compound 137, 5-(4-((7-((3-((2,6-Dimethylphenyl)amino)-1-methyl-1H-pyrazolo[3,4-d]pyrimidin-6-yl)amino)-3,4-dihydroisoquinolin-2 (1H)-yl)methyl)piperidin-1-yl)-N-(2,6-dioxopiperidin-3-yl)picolinamide] and `Cc1cccc(C)c1Nc1nn(C)c2nc(Nc3ccc4c(c3)CCN(C[C@@H]3CCN(c5ccc6c(c5)C(=O)N(C5CCC(=O)NC5=O)C6=O)C3)C4)ncc12` (stereo partly drawn) [Compound 174, 5-((S)-3-((6-((3-((2,6-Dimethylphenyl)amino)-1-methyl-1H-pyrazolo[3,4-d]pyrimidin-6-yl)amino)-3,4-dihydroisoquinolin-2 (1H)-yl)methyl)pyrrolidin-1-yl)-2-(2,6-dioxopiperidin-3-yl)isoindoline-1,3-dione] fall in the same range of DC50: 0.1 to 10 nM for the first, 0.1 to 10 nM for the second.

First: Cc1cccc(C)c1Nc1nn(C)c2nc(Nc3ccc4c(c3)CN(C(=O)Nc3ccc5c(c3)CN(C3CCC(=O)NC3=O)C5=O)CC4)ncc12 (centres unmarked) [Compound 96, 7-((3-((2,6-dimethylphenyl)amino)-1-methyl-1H-pyrazolo[3,4-d]pyrimidin-6-yl)amino)-N-(2-(2,6-dioxopiperidin-3-yl)-1-oxoisoindolin-5-yl)-3,4-dihydroisoquinoline-2 (1H)-carboxamide]
Second: Cc1cccc(C)c1Nc1nn(C)c2nc(Nc3ccc4c(c3)CN(CC(=O)NCc3ccc5c(c3)CN(C3CCC(=O)NC3=O)C5=O)CC4)ncc12 (centres unmarked) [Compound 94, 2-(7-((3-((2,6-dimethylphenyl)amino)-1-methyl-1H-pyrazolo[3,4-d]pyrimidin-6-yl)amino)-3,4-dihydroisoquinolin-2 (1H)-yl)-N-((2-(2,6-dioxopiperidin-3-yl)-1-oxoisoindolin-5-yl)methyl)acetamide]
The DC50 of the first is lower: 0.1 to 10 nM for the first, 10 to 1000 nM for the second.

`Cc1cccc(C)c1Nc1nn(C)c2nc(Nc3ccc(N4CCN(CC5CN(c6ccc7c(c6)C(=O)N(C6CCC(=O)NC6=O)C7=O)C5)[C@@H](C)C4)cc3)ncc12` (stereo partly drawn) [Compound 185, 5-(3-(((S)-4-(4-((3-((2,6-Dimethylphenyl)amino)-1-methyl-1H-pyrazolo[3,4-d]pyrimidin-6-yl)amino)phenyl)-2-methylpiperazin-1-yl)methyl)azetidin-1-yl)-2-(2,6-dioxopiperidin-3-yl)isoindoline-1,3-dione] and `Cc1cccc(C)c1Nc1nn(C)c2nc(Nc3ccc(N4CCN(C[C@H]5CCN(c6ccc7c(c6)C(=O)N(C6CCC(=O)NC6=O)C7=O)C5)CC4)cc3)ncc12` (stereo partly drawn) [Compound 179, 5-((R)-3-((4-(4-((3-((2,6-Dimethylphenyl)amino)-1-methyl-1H-pyrazolo[3,4-d]pyrimidin-6-yl)amino)phenyl)piperazin-1-yl)methyl)pyrrolidin-1-yl)-2-(2,6-dioxopiperidin-3-yl)isoindoline-1,3-dione] fall in the same range of DC50: 0.1 to 10 nM for the first, 0.1 to 10 nM for the second.

First: Cc1cccc(C)c1Nc1nn(C)c2nc(Nc3ccc(C4CCN(C(=O)C5CN(c6ccc7c(c6)C(=O)N(C6CCC(=O)NC6=O)C7=O)C5)CC4)cc3)ncc12 (centres unmarked) [Compound 228, 5-(3-(4-(4-((3-((2,6-dimethylphenyl)amino)-1-methyl-1H-pyrazolo[3,4-d]pyrimidin-6-yl)amino)phenyl)piperidine-1-carbonyl)azetidin-1-yl)-2-(2,6-dioxopiperidin-3-yl)isoindoline-1,3-dione]
Second: Cc1cccc(C)c1Nc1nn(C)c2nc(Nc3ccc(C4CCN(C(=O)C5CN(c6ccc7c(c6)C(=O)N(C6CCC(=O)NC6=O)C7=O)C5)CC4)c(F)c3)ncc12 (centres unmarked) [Compound 229, 5-(3-(4-(4-((3-((2,6-dimethylphenyl)amino)-1-methyl-1H-pyrazolo[3,4-d]pyrimidin-6-yl)amino)-2-fluorophenyl)piperidine-1-carbonyl)azetidin-1-yl)-2-(2,6-dioxopiperidin-3-yl)isoindoline-1,3-dione]
The DC50 of the first is lower: 0.1 to 10 nM for the first, 10 to 1000 nM for the second.

`Cc1cccc(C)c1Nc1nn(C)c2nc(Nc3ccc(N4CCN(c5ccc6c(c5)C(=O)N(C5CCC(=O)NC5=O)C6=O)CC4)cc3)ncc12` (centres unmarked) [Compound 238, 5-(4-(4-((3-((2,6-dimethylphenyl)amino)-1-methyl-1H-pyrazolo[3,4-d]pyrimidin-6-yl)amino)phenyl)piperazin-1-yl)-2-(2,6-dioxopiperidin-3-yl)isoindoline-1,3-dione] and `Cc1cccc(C)c1Nc1nn(C)c2nc(Nc3ccc(C4CN(C[C@H]5CCN(c6ccc7c(c6)C(=O)N(C6CCC(=O)NC6=O)C7=O)C5)C4)cc3)ncc12` (stereo partly drawn) [Compound 176, 5-((R)-3-((3-(4-((3-((2,6-dimethylphenyl)amino)-1-methyl-1H-pyrazolo[3,4-d]pyrimidin-6-yl)amino)phenyl)azetidin-1-yl)methyl)pyrrolidin-1-yl)-2-(2,6-dioxopiperidin-3-yl)isoindoline-1,3-dione] fall in the same range of DC50: 0.1 to 10 nM for the first, 0.1 to 10 nM for the second.

`Cc1cccc(C)c1Nc1nn(C)c2nc(Nc3ccc(N4CCN(C[C@H]5CCCN(c6ccc7c(c6)C(=O)N(C6CCC(=O)NC6=O)C7=O)C5)CC4)nc3)ncc12` (stereo partly drawn) [Compound 160, 5-((R)-3-((4-(5-((3-((2,6-Dimethylphenyl)amino)-1-methyl-1H-pyrazolo[3,4-d]pyrimidin-6-yl)amino)pyridin-2-yl)piperazin-1-yl)methyl)piperidin-1-yl)-2-(2,6-dioxopiperidin-3-yl)isoindoline-1,3-dione] and `Cc1cccc(C)c1Nc1nn(C)c2nc(Nc3ccc(N4CCN(C5CCN(c6ccc7c(c6)C(=O)N(C6CCC(=O)NC6=O)C7=O)CC5)CC4)nc3)ncc12` (centres unmarked) [Compound 156, 5-(4-(4-(5-((3-((2,6-dimethylphenyl)amino)-1-methyl-1H-pyrazolo[3,4-d]pyrimidin-6-yl)amino)pyridin-2-yl)piperazin-1-yl)piperidin-1-yl)-2-(2,6-dioxopiperidin-3-yl)isoindoline-1,3-dione] fall in the same range of DC50: 0.1 to 10 nM for the first, 0.1 to 10 nM for the second.

First: Cc1cccc(C)c1Nc1nn(C)c2nc(Nc3ccc4c(c3)CN(C(=O)/C(C#N)=C/C3CCN(C(=O)COc5ccc6c(c5)C(=O)N(C5CCC(=O)NC5=O)C6=O)CC3)CC4)ncc12 (centres unmarked) [Compound 241, (E)-2-(7-((3-((2,6-dimethylphenyl)amino)-1-methyl-1H-pyrazolo[3,4-d]pyrimidin-6-yl)amino)-1,2,3,4-tetrahydroisoquinoline-2-carbonyl)-3-(1-(2-((2-(2,6-dioxopiperidin-3-yl)-1,3-dioxoisoindolin-5-yl)oxy)acetyl)piperidin-4-yl)acrylonitrile]
Second: Cc1cccc(C)c1Nc1nn(C)c2nc(Nc3ccc4c(c3)CN(C(=O)C3(NCC5CCN(c6ccc7c(c6)C(=O)N(C6CCC(=O)NC6=O)C7=O)CC5)CC3)CC4)ncc12 (centres unmarked) [Compound 199, 5-(4-(((1-(7-((3-((2,6-Dimethylphenyl)amino)-1-methyl-1H-pyrazolo[3,4-d]pyrimidin-6-yl)amino)-1,2,3,4-tetrahydroisoquinoline-2-carbonyl)cyclopropyl)amino)methyl)piperidin-1-yl)-2-(2,6-dioxopiperidin-3-yl)isoindoline-1,3-dione]
The DC50 of the first is lower: 0.1 to 10 nM for the first, 10 to 1000 nM for the second.

First: Cc1cccc(C)c1Nc1nn(C)c2nc(Nc3ccc(N4CCN(CC5CCN(c6cc7c(cc6F)C(=O)N(C6CCC(=O)NC6=O)C7)CC5)CC4)cc3)ncc12 (centres unmarked) [Compound 245, 3-(5-(4-((4-(4-((3-((2,6-Dimethylphenyl)amino)-1-methyl-1H-pyrazolo[3,4-d]pyrimidin-6-yl)amino)phenyl)piperazin-1-yl)methyl)piperidin-1-yl)-6-fluoro-1-oxoisoindolin-2-yl)piperidin-2,6-one]
Second: Cc1cccc(C)c1Nc1nn(C)c2nc(Nc3ccc4c(c3)CN(CC3CCN(CC(=O)Nc5ccc6c(c5)C(=O)N(C5CCC(=O)NC5=O)C6=O)CC3)CC4)ncc12 (centres unmarked) [Compound 90, 2-(4-((7-((3-((2,6-Dimethylphenyl)amino)-1-methyl-1H-pyrazolo[3,4-d]pyrimidin-6-yl)amino)-3,4-dihydroisoquinolin-2 (1H)-yl)methyl)piperidin-1-yl)-N-(2-(2,6-dioxopiperidin-3-yl)-1,3-dioxoisoindolin-5-yl)acetamide]
The DC50 of the first is lower: 0.1 to 10 nM for the first, 10 to 1000 nM for the second.
